Values quoted from earlier work as cited in patent US12728103B2, “Pharmaceutical composition comprising mitotane administered orally for treatment of adrenocortical carcinoma and Cushing's syndrome” (priority 2019, dated 2026).

Clc1ccc(C(c2ccccc2Cl)C(Cl)Cl)cc1 (centres unmarked) [Mitotane, ortho,para'dichloro-diphenyl-dichloroethane]
concentration in fat relative to plasma (accumulation in fat): ~200 times
product found in the faeces in an unmetabolized form (humans, conventional tablet): 60%
mitotaemia at which neurological disorders (ataxia, depressive syndrome) occur (patients): exceeds 20 mg/L
plasma concentration to be reached to be effective (patients): at least 14 mg/L
treatment time to reach the effective plasma concentration (patients, average): 3 months
